Assay results published in the NIST ThermoML archive (doi:10.1021/je060271a).
Where “and” joins values, the source holds several entries; their conditions need not be identical. Equal values may be shown once.

Conditions: Liquid, Vibrating tube method

CCCCCC(=O)OCC(COC(=O)CCCCC)(COC(=O)CCCCC)COC(=O)CCCCC [pentaerythritol tetrahexanoate]
Conditions | mass density
343.16 K, 33002 kPa | 980 kg/m3
343.16 K, 33028 kPa | 980.1 kg/m3
343.16 K, 33054 kPa | 980.2 kg/m3
343.16 K, 33085 kPa | 980.1 kg/m3
343.16 K, 33111 kPa | 980.2 kg/m3
343.16 K, 33138 kPa | 980.1 kg/m3
343.16 K, 33170 kPa | 980.2 kg/m3
343.16 K, 33198 kPa | 980.2 kg/m3
343.16 K, 33224 kPa | 980.2 kg/m3
343.16 K, 33250 kPa | 980.3 kg/m3
343.16 K, 33277 kPa | 980.2 kg/m3
343.16 K, 33310 kPa | 980 kg/m3
343.16 K, 33337 kPa | 980.3 kg/m3
343.16 K, 33364 kPa | 980.3 kg/m3
343.16 K, 33397 kPa | 980.3 kg/m3
343.16 K, 33424 kPa | 980.3 kg/m3
343.16 K, 33458 kPa | 980.4 kg/m3
343.16 K, 33486 kPa | 980.4 kg/m3
343.16 K, 33515 kPa | 980.2 kg/m3
343.16 K, 33551 kPa | 980.4 kg/m3
343.16 K, 33582 kPa | 980.5 kg/m3
343.16 K, 33613 kPa | 980.4 kg/m3
343.16 K, 33643 kPa | 980.7 kg/m3
343.16 K, 33678 kPa | 980.5 kg/m3
343.16 K, 33700 kPa | 980.5 kg/m3
343.16 K, 33718 kPa | 980.5 kg/m3
343.16 K, 33738 kPa | 980.5 kg/m3
343.16 K, 33761 kPa | 980.6 kg/m3
343.16 K, 33781 kPa | 980.6 kg/m3
343.16 K, 33806 kPa | 980.6 kg/m3
343.16 K, 33826 kPa | 980.6 kg/m3
343.16 K, 33846 kPa | 980.6 kg/m3
343.16 K, 33868 kPa | 980.6 kg/m3
343.16 K, 33883 kPa | 980.7 kg/m3
343.16 K, 33898 kPa | 980.7 kg/m3
343.16 K, 33914 kPa | 980.8 kg/m3
343.16 K, 33932 kPa | 980.6 kg/m3
343.16 K, 33948 kPa | 980.7 kg/m3
343.16 K, 33966 kPa | 980.7 kg/m3
343.16 K, 33982 kPa | 980.5 kg/m3
343.16 K, 33995 kPa | 980.7 kg/m3
343.16 K, 34005 kPa | 980.7 kg/m3
343.16 K, 34016 kPa | 980.8 kg/m3
343.16 K, 34026 kPa | 980.7 kg/m3
343.16 K, 34034 kPa | 980.8 kg/m3
343.16 K, 34035 kPa | 980.7 kg/m3
343.16 K, 34036 kPa | 980.8 kg/m3
343.16 K, 34037 kPa | 980.9 kg/m3 and 980.6 kg/m3
343.16 K, 34047 kPa | 980.7 kg/m3
343.16 K, 34048 kPa | 980.7 kg/m3
343.16 K, 34058 kPa | 980.8 kg/m3
343.16 K, 34091 kPa | 980.7 kg/m3
343.16 K, 34101 kPa | 980.8 kg/m3
343.16 K, 34114 kPa | 980.8 kg/m3
343.16 K, 34125 kPa | 980.7 kg/m3
343.16 K, 34137 kPa | 980.8 kg/m3
343.16 K, 34151 kPa | 980.7 kg/m3
343.16 K, 34163 kPa | 980.8 kg/m3
343.16 K, 34177 kPa | 980.7 kg/m3
343.16 K, 34189 kPa | 980.8 kg/m3
343.16 K, 34190 kPa | 980.9 kg/m3
343.16 K, 34198 kPa | 980.8 kg/m3
343.16 K, 34203 kPa | 980.8 kg/m3
343.16 K, 34211 kPa | 980.7 kg/m3
343.16 K, 34217 kPa | 980.8 kg/m3
343.16 K, 34223 kPa | 980.8 kg/m3
343.16 K, 34231 kPa | 980.7 kg/m3
343.16 K, 34237 kPa | 980.9 kg/m3
343.16 K, 34243 kPa | 980.7 kg/m3
343.16 K, 34248 kPa | 980.8 kg/m3
343.16 K, 34251 kPa | 980.9 kg/m3
343.16 K, 34253 kPa | 980.9 kg/m3
343.16 K, 34254 kPa | 980.8 kg/m3 and 980.9 kg/m3
343.16 K, 34255 kPa | 980.8 kg/m3 and 980.9 kg/m3
343.16 K, 34256 kPa | 980.8 kg/m3 and 980.9 kg/m3 and 980.7 kg/m3
343.16 K, 34257 kPa | 980.9 kg/m3
343.16 K, 34258 kPa | 980.8 kg/m3 and 980.7 kg/m3
343.16 K, 34259 kPa | 981 kg/m3
343.16 K, 34262 kPa | 980.9 kg/m3
343.16 K, 34263 kPa | 980.8 kg/m3 and 980.9 kg/m3
343.16 K, 34264 kPa | 980.9 kg/m3
343.16 K, 34265 kPa | 980.9 kg/m3 and 980.8 kg/m3
343.16 K, 34266 kPa | 980.8 kg/m3 and 980.9 kg/m3
343.16 K, 34267 kPa | 980.8 kg/m3 and 981 kg/m3 and 980.9 kg/m3
343.16 K, 34268 kPa | 980.8 kg/m3 and 980.9 kg/m3
343.16 K, 34269 kPa | 980.8 kg/m3 and 980.9 kg/m3
343.16 K, 34270 kPa | 980.9 kg/m3 and 980.8 kg/m3
343.16 K, 34271 kPa | 980.8 kg/m3
343.16 K, 34272 kPa | 981 kg/m3
343.16 K, 34273 kPa | 980.9 kg/m3
343.16 K, 34274 kPa | 980.9 kg/m3
343.16 K, 34275 kPa | 980.8 kg/m3
343.16 K, 34276 kPa | 980.9 kg/m3
343.16 K, 34277 kPa | 980.9 kg/m3
343.16 K, 34278 kPa | 980.9 kg/m3
343.16 K, 34279 kPa | 980.8 kg/m3
343.16 K, 34283 kPa | 980.9 kg/m3
343.16 K, 34284 kPa | 980.9 kg/m3 and 980.8 kg/m3 and 981 kg/m3
343.16 K, 34285 kPa | 980.9 kg/m3
343.16 K, 34286 kPa | 980.8 kg/m3
343.16 K, 34287 kPa | 980.9 kg/m3 and 981 kg/m3
343.16 K, 34288 kPa | 980.9 kg/m3
343.16 K, 34289 kPa | 980.9 kg/m3
343.16 K, 34290 kPa | 980.8 kg/m3 and 980.9 kg/m3
343.16 K, 34291 kPa | 980.9 kg/m3
343.16 K, 34292 kPa | 980.9 kg/m3
343.16 K, 34293 kPa | 980.9 kg/m3
343.16 K, 34294 kPa | 980.9 kg/m3
343.16 K, 34295 kPa | 980.8 kg/m3
343.16 K, 34296 kPa | 980.9 kg/m3
343.16 K, 34297 kPa | 980.9 kg/m3
343.16 K, 34298 kPa | 980.9 kg/m3 and 981 kg/m3
343.16 K, 34300 kPa | 980.9 kg/m3
343.16 K, 34301 kPa | 980.8 kg/m3
343.16 K, 34303 kPa | 980.9 kg/m3
343.16 K, 34305 kPa | 980.9 kg/m3
343.16 K, 34307 kPa | 980.9 kg/m3
343.16 K, 34310 kPa | 981 kg/m3
343.16 K, 34312 kPa | 980.8 kg/m3
343.16 K, 34315 kPa | 980.9 kg/m3
343.16 K, 34319 kPa | 980.9 kg/m3
343.16 K, 34322 kPa | 980.9 kg/m3
343.16 K, 34326 kPa | 980.9 kg/m3
343.16 K, 34332 kPa | 980.8 kg/m3
343.16 K, 34336 kPa | 980.8 kg/m3
343.16 K, 34342 kPa | 980.9 kg/m3
343.16 K, 34350 kPa | 980.9 kg/m3
343.16 K, 34356 kPa | 980.9 kg/m3
343.16 K, 34361 kPa | 980.9 kg/m3
343.16 K, 34363 kPa | 980.9 kg/m3
343.16 K, 34369 kPa | 981 kg/m3
343.17 K, 21206 kPa | 972.4 kg/m3
343.17 K, 30224 kPa | 978.4 kg/m3
343.17 K, 30254 kPa | 978.3 kg/m3
343.17 K, 30283 kPa | 978.4 kg/m3
343.17 K, 30312 kPa | 978.5 kg/m3
343.17 K, 30333 kPa | 978.4 kg/m3
343.17 K, 30358 kPa | 978.5 kg/m3
343.17 K, 30380 kPa | 978.5 kg/m3
343.17 K, 30402 kPa | 978.4 kg/m3
343.17 K, 30428 kPa | 978.5 kg/m3
343.17 K, 30449 kPa | 978.5 kg/m3
343.17 K, 30471 kPa | 978.6 kg/m3
343.17 K, 30497 kPa | 978.5 kg/m3
343.17 K, 31456 kPa | 979.2 kg/m3
